Measured values from publication PMC12728205, “The solute-binding proteins DppA1–5 of Pseudomonas aeruginosa have distinct substrate profiles” (Scientific Reports, 2025).
Peptide text beside a SMILES is read from it.

Biological target: T1, DppA1 (Pseudomonas aeruginosa, UniProt A0A0H2ZGV2)
T1 construct: C-terminal TwinStrepTag, codon-optimized gene, periplasmic expression in E. coli BL21 (pET22b), StrepTrap purified
Assay: differential scanning fluorimetry (SYPRO Orange)
Format: binding
Details: 10 µM protein, 250 µM peptide, PBS

T1 sequence (A0A0H2ZGV2 30-537): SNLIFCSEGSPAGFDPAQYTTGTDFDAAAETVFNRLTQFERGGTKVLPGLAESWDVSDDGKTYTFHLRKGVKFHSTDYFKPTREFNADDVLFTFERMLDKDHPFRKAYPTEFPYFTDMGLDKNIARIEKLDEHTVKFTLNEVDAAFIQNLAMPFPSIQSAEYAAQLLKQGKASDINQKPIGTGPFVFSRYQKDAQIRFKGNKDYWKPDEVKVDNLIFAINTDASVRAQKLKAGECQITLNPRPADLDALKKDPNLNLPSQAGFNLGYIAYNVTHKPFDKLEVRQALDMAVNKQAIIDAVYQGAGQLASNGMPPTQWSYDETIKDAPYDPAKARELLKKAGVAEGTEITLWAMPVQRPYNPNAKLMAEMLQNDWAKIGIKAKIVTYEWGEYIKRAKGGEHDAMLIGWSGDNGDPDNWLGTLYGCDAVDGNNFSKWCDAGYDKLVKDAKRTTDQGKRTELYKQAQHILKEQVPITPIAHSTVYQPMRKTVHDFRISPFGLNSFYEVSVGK

Work on `C[C@H](N)C(=O)NCC(=O)O` [Ala-Gly] (H-Ala-Gly-OH) yielded a ΔTm of 8.6 °C.
